Measurements taken from patent US20030119792A1, “Method of inhibiting the production and/or effects of intestinal pro-inflammatory cytokines, prostaglandins and others” (priority 2001, published 2003).
Entries after “also recorded” stand apart in the source; their conditions may differ. Marks after values point to notes of the source that are not given here.

Tests used:
[1] = system: TNF-α production in U-937 cells; assay: LPS-stimulated TNF-α production in PMA-differentiated U-937 cells; format: cell-based, human; conditions: for effect on TNF-α production (in words): differentiated U-937 cells, LPS 4 h, 10^−6 to 10^−4 M
Experimental: The cells are cultured in RPMI 1640 (Life Technologies) supplemented with 10% fetal bovine serum and 2 mM glutamine in a humidified 5% CO2 atmosphere at 37° C. Cell concentration is adjusted to 0.5×10^6 cells ml, and monocytic differentiation is induced by incubation with 20 ng ml^−1 PMA for 24 h. After that, cells are harvested, centrifuged at 200 g for 5 min and plated onto 48-well plates at 210^6 cells ml^−1, pre-incubated for 30 min with the test compounds at concentrations ranging from 10^−6 to 10^−4 M, and stimulated with 0.1 μg ml^−1 LPS. After 4 h, plates are centrifuged at 1,000 g for 10 min and supernatants are collected and stored at −80° C. for the quantification of the TNF-α released in the culture medium by EIA using a commercial kit (R&D, Minneapolis, Minn., USA).

[2] = system: IL-1β production in THP-1 cells; assay: LPS and PMA-stimulated IL-1β production in THP-1 cells; format: cell-based, human; conditions: for effect on stimulated IL-1β production (in words): 10^−7 to 10^−4 M
Experimental: The human monocytic cell line THP-1 is obtained from the Cell Culture Unit of the University of Granada (Granada, Spain) (ECACC reference number: 88081201) and used to assay the effects of the different compounds on IL-1 production. These cells are cultured in RPMI 1640 (Life Technologies, Paisley, UK) supplemented with 10% fetal bovine serum (Life Technologies), 2 mM glutamine and 0.05 mM mercaptoethanol in a humidified 5% CO2 atmosphere at 37° C. Cells are seeded onto 24-well plates at a density of 2×10^6 cells ml^−1 and pre-incubated during 30 min with the different test compounds, at concentrations ranging from 10^−7 to 10^−4 M, and then stimulated with 1 μg ml^−1 LPS and 1 μM phorbol 12-myristate 13-acetate (PMA). After 20 h, plates are centrifuged at 1,000 g for 10 min and supematants are collected and stored at −80° C. for the determination of IL-1 levels by EIA using a kit system (Amersham Pharmacia Biotech, Buckinghamshire, UK).

[3] = system: IL-8 production in HT-29 cells; assay: LPS-stimulated IL-8 production in HT-29 cell cultures; format: cell-based, human; conditions: for effect on IL-8 basal production: no LPS
Experimental: The human colon adenocarcinoma cell line HT-29, obtained from the Cell Culture Unit of the University of Granada (Granada, Spain) (ECACC reference number: 91072201), is used as a model of intestinal epithelium to test the ability of the different compounds to inhibit the production/release of IL-8. Cells are grown in Dulbecco's modified Eagle's medium supplemented with 10% fetal bovine serum (Boehringer Mannheim, Mannheim, Germany), 2 mM L-glutamine, 50,000 u l^−1 penicillin/streptomycin and 2.5 mg ml^−1 amphotericin B, in a humidified 5% CO2 atmosphere at 37° C. Cells are seeded into 12-well plates and grown to confluence. […] After 20 h, supernatants are collected, centrifuiged to remove debris at 7,000 g for 10 min and stored at −80° C. for the determination of IL-8 levels by enzyme-linked immunosorbent assay (Biosource International, Nivilles, Belgium).

[4] = system: TNBS-induced rat colitis; conditions: cited from earlier work
[5] = system: colonic myeloperoxidase (MPO) activity; assay: Reactivated TNBS colitis in rats: colonic MPO activity; format: in vivo, rat
Experimental: (§1) Colitis is induced by the method originally described by Morris et al. (1989), with minor modifications. Female Wistar rats (180-220 g) obtained from the Laboratory Animal Service of the University of Granada (Granada, Spain) are randomly distributed in several experimental groups. Animals are housed in makrolon cages (3-4 rats per cage) and maintained in an air-conditioned animal room with a 12 h light-dark cycle, and they are provided with free access to tap water and food (Panlab A.04). Animals are fasted overnight and anaesthetized with halothane. Under anesthesia, animals received 10 mg of TNBS dissolved in 0.25 ml of 50% ethanol (v v^−1) by means of a Teflon cannula inserted 8 cm through the anus. During and after TNBS administration rats are kept in a head-down position until they recovered from anesthesia, and then returned to their cage. […] Two additional groups are also included for reference: a non colitic group receiving intracolonically 0.25 ml of phosphate buffer saline (pH=7.4) and another colitic group which received only the first dose of TNBS (control group without relapse); both groups are orally administered with vehicle.
Animals are sacrificed with an overdose of halothane, and the entire colon is removed. The colonic segments are placed on an ice-cold plate, cleaned of fat and mesentery, and blotted on filter paper. Each specimen is weighed and its length measured under a constant load (2 g). […] The colon is subsequently divided longitudinally in 3 pieces for biochemical determinations. […] MPO activity is measured according to the technique described by Krawisz et al. (1984); the results are expressed as MPO units per gram of wet tissue and one unit of MPO activity is defined as that degrading 1 μmol min^−1 of hydrogen peroxide at 25° C. […] The supernatants are frozen at −80° C. until assay and cytokines are quantified by enzyme-linked immunosorbent assay (Amersham Pharmacia Biotech). […]

[6] = system: colonic TNF-α levels; assay: Reactivated TNBS colitis in rats: colonic TNF-α levels; format: in vivo, rat; conditions: FIG. 6
Experimental: (§2) Colitis is induced by the method originally described by Morris et al. (1989), with minor modifications. Female Wistar rats (180-220 g) obtained from the Laboratory Animal Service of the University of Granada (Granada, Spain) are randomly distributed in several experimental groups. Animals are housed in makrolon cages (3-4 rats per cage) and maintained in an air-conditioned animal room with a 12 h light-dark cycle, and they are provided with free access to tap water and food (Panlab A.04). Animals are fasted overnight and anaesthetized with halothane. Under anesthesia, animals received 10 mg of TNBS dissolved in 0.25 ml of 50% ethanol (v v^−1) by means of a Teflon cannula inserted 8 cm through the anus. […]
(§3) Animals are sacrificed with an overdose of halothane, and the entire colon is removed. […] Each specimen is weighed and its length measured under a constant load (2 g). […] MPO activity is measured according to the technique described by Krawisz et al. (1984); the results are expressed as MPO units per gram of wet tissue and one unit of MPO activity is defined as that degrading 1 μmol min^−1 of hydrogen peroxide at 25° C. […] The supernatants are frozen at −80° C. until assay and cytokines are quantified by enzyme-linked immunosorbent assay (Amersham Pharmacia Biotech). […]

[7] = system: reactivated TNBS colitis; assay: Reactivated TNBS colitis in rats: macroscopic colonic damage; format: in vivo, rat
Experimental: as §1
Animals are sacrificed with an overdose of halothane, and the entire colon is removed. The colonic segments are placed on an ice-cold plate, cleaned of fat and mesentery, and blotted on filter paper. Each specimen is weighed and its length measured under a constant load (2 g). […] The colon is subsequently divided longitudinally in 3 pieces for biochemical determinations. […] MPO activity is measured according to the technique described by Krawisz et al. (1984); the results are expressed as MPO units per gram of wet tissue and one unit of MPO activity is defined as that degrading 1 μmol min^−1 of hydrogen peroxide at 25° C. Samples for the determination of TNF-α and IL-1 synthesis are immediately weighed, minced on an ice-cold plate and suspended in a tube with 10 mM sodium phosphate buffer, pH=7.4, 1:5 w v^−1. The tubes are placed in a shaking water bath at 37° C. for 20 min and centrifuged at 9000 g for 30 s at 4° C. The supernatants are frozen at −80° C. until assay and cytokines are quantified by enzyme-linked immunosorbent assay (Amersham Pharmacia Biotech). All biochemical measurements are completed within one week from the time of sample collection and are performed in duplicate.

[8] = system: TNF-α production in mononuclear cells; assay: TNF-α production in mononuclear cells (FIG. 8); format: cell-based; conditions: 10 uM
From the text: FIG. 8. Effects of UR-12746-S in the production of TNF-α in mononuclear cells.

[9] = system: colonic IL-1β levels; assay: Reactivated TNBS colitis in rats: colonic IL-1β levels; format: in vivo, rat; conditions: FIG. 5
Experimental: as §2, §3

[10] = system: HT-29, THP-1 and U-937 cells; conditions: any assayed concentration, any cell types used
Experimental: Test compounds are prepared at 600 μM stock solution in PBS and further working dilutions are performed in culture medium. Percentage inhibition of cytokine production is calculated for every drug concentration.
The test compounds are prepared at 600 μM stock solution in PBS and further working dilutions are performed in culture medium. Percentage inhibition of cytokine production is calculated for every drug concentration.

[11] = two weeks after the initial colonic challenge
[12] = 25 mg kg^−1 oral daily, 3 wk (after second TNBS)
[13] = 25 mg kg^−1 oral daily, 4 wk (after second TNBS)
[14] = 50 mg kg^−1 oral daily, 3 wk (after second TNBS)
[15] = 50 mg kg^−1 oral daily, 4 wk (after second TNBS)

Nc1ccc(O)c(C(=O)O)c1 [5-ASA, 5-aminosalicylic acid]
effect on TNF-α production (in words) [1]: devoid of any significant effect; also recorded: inactive | effect on stimulated IL-1β production (in words) [2]: only a weak effect; also recorded: weak inhibitory activity | inhibition of stimulated IL-1β production ([2]; the different concentrations assayed): 10-20% | inhibition at 1 µM ([3]; Homo sapiens, LPS, achieved at 10^−6 M, not higher up to 10^−4 M, read-out: maximum inhibitory effect on LPS-stimulated IL-8 production): 30 to 40% | effect on IL-8 basal production [3]: no significant effect

Cc1nc2cnccc2n1CC1CCN(C(=O)C=C(c2ccccc2)c2ccc(/N=N\c3ccc(O)c(C(=O)O)c3)cc2)CC1 [UR-12746 free acid, (Z)-2-hydroxy-5-[[4-[3-[4-[(2-methyl-1H-imidazo[4,5-c]pyridin-1-yl)methyl]-1-piperidinyl]-3-oxo-1-phenyl-1-propenyl]phenyl]azo] benzoic acid]
IL-1β production ([4]; 50-100 mg/kg, 4 week time span): reduce IL-1β production | Platelet Activating Factor (PAF) activity ([4]; 50-100 mg/kg, 4 week time span): inhibit Platelet Activating Factor (PAF) activity | colonic myeloperoxidase (MPO) activity ([4]; 50-100 mg/kg, 4 week time span): reduce colonic myeloperoxidase (MPO) activity | LTB4 production ([4]; only at 100 mg/kg and only after 3 and 4 weeks of administration): reduce LTB4 production | colonic damage ([4]; only at the 100 mg/kg dosage): significant reduction in colonic damage

Cc1nc2cnccc2n1CC1CCN(C(=O)C=C(c2ccccc2)c2ccc(/N=N\c3ccc(O)c(C(=O)[O-])c3)cc2)CC1.[Na+] [UR-12746-S, (Z)-2-hydroxy-5-[[4-[3-[4-[(2-methyl-1H-imidazo[4,5-c]pyridin-1-yl)methyl]-1-piperidinyl] -3-oxo-1-phenyl-1-propenyl]phenyl]azo] benzoic acid sodium salt]
colonic MPO activity after colitis relapse ([5]; 25 and 50 mg kg^−1, after second TNBS, FIG. 4): prevent the increased activity | colonic MPO activity ([5]; 25 and 50 mg kg^−1, first two weeks after the initial TNBS, FIG. 4): reduction in colonic MPO activity | effect in reducing MPO activity in comparison with sulphasalazine ([5]; same doses, same experimental conditions): higher effect | colonic TNF-α levels after second administration of TNBS ([6]; 50 mg kg^−1, after second TNBS): significantly reduced | colonic TNF-α levels [6, 11]: without showing any significant effect | potency in inhibiting TNF-α production compared to the individual components, a combination of the components and sulfasalazine ([1]; U-937 cells, FIG. 7): more potent | colonic weight/length ratio, mean ± s.e.mean ([7]; 25 mg kg^−1 oral daily, 1 wk): 146.6 ± 8.1 mg/cm | damage score (0-10), median (range) ([7]; 25 mg kg^−1 oral daily, 1 wk): 5.5 (4-6) | colonic weight/length ratio, mean ± s.e.mean ([7]; 25 mg kg^−1 oral daily, 2 wk): 143.6 ± 4.9 mg/cm | damage score (0-10), median (range) ([7]; 25 mg kg^−1 oral daily, 2 wk): 5 (4-5) | colonic weight/length ratio, mean ± s.e.mean [7, 12]: 150.5 ± 4.3 mg/cm | damage score (0-10), median (range) [7, 12]: 5 (4-6) | colonic weight/length ratio, mean ± s.e.mean [7, 13]: 143.2 mg/cm | damage score (0-10), median (range) [7, 13]: 5 (2-6) | colonic weight/length ratio, mean ± s.e.mean ([7]; 50 mg kg^−1 oral daily, 1 wk): 137.0 ± 8.4 mg/cm | damage score (0-10), median (range) ([7]; 50 mg kg^−1 oral daily, 1 wk): 4.5 (4-6) | colonic weight/length ratio, mean ± s.e.mean ([7]; 50 mg kg^−1 oral daily, 2 wk): 120.0 ± 5.9 mg/cm | damage score (0-10), median (range) ([7]; 50 mg kg^−1 oral daily, 2 wk): 4 (3-5) | colonic weight/length ratio, mean ± s.e.mean [7, 14]: 142.3 ± 3.1 mg/cm | damage score (0-10), median (range) [7, 14]: 4 (3-5)* | colonic weight/length ratio, mean ± s.e.mean [7, 15]: 110.8 mg/cm | damage score (0-10), median (range) [7, 15]: 3 (2-4)* | colonic macroscopic damage score and colonic weight/length ratio after reactivation, compared with control colitic animals without relapse ([7]; after second TNBS dose): no statistical differences | inhibition of TNF-α production compared with UR-12715 or a combination of UR-12715 and 5-ASA [8]: to a greater extent | colonic IL-1β levels after second administration of TNBS ([9]; after second TNBS): effectively prevents the increase in IL-1β levels | colonic IL-1β levels [9, 11]: decrease colonic IL-1β levels significantly

Cc1nc2cnccc2n1CC1CCN(C(=O)C=C(c2ccccc2)c2ccc(N=Nc3ccc(O)c(C(=O)O)c3)cc2)CC1 [trans-1-[[1-[3-[4-(4-hydroxy-3-carboxyphenylazo)phenyl]-3-phenylpropenoyl]-4-piperidyl]methyl]-1H-2-methylimidazole [4,5-c] pyridine]
viability (trypan blue exclusion) [10]: higher than 95%

(Z)-1-[4-(3-aminophenyl)-1-oxo-3-phenyl-2-propenyl]-4-[(2-methyl-lH-imidazo[4,5-c]pyridin-1-yl)methyl] piperidine [UR-12715]
effect on TNF-α production (in words) [1]: inhibited; also recorded: concentration-dependent inhibitory effect | effect on stimulated IL-1β production (in words) [2]: inhibited; also recorded: inhibits the stimulated cytokine production in a concentration-dependent way | effect on IL-8 basal production [3]: no significant effect
